# In the supplement of paper PMC9663587:
# What was measured:
# Neratinib/HKI272 [1] = compound: T1, CCOc1cc2ncc(C#N)c(Nc3ccc(OCc4ccccn4)c(Cl)c3)c2cc1NC(=O)/C=C/CN(C)C [Neratinib/HKI272]; test: GR value, 72 h; higher = faster growth (1 = untreated, <0 = killing);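 note: breast cancer and non-malignant breast epithelial lines, nine half-log doses, viable cells counted by Hoechst and LIVE/DEAD dye imaging versus time-zero plates and DMSO controls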
# Flavopiridol [2] = compound: T2, CN1CC[C@H](c2c(O)cc(O)c3c(=O)cc(-c4ccccc4Cl)oc23)[C@H](O)C1 [Flavopiridol]; test: as above
# [3] = compound: CCc1cnn2c(NCc3ccc[n+]([O-])c3)cc(N3CCCC[C@H]3CCO)nc12; test: increase in dead-cell fraction, 72 h; higher = more death;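 note: breast cancer cell lines in 384-well plates, stained with Hoechst plus LIVE/DEAD far red dye and imaged, cells above an LDR intensity threshold counted dead, Hoechst-negative corpses included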
# [4] = compound: CCN1CCN(Cc2ccc(Nc3ncc(F)c(-c4cc(F)c5nc(C)n(C(C)C)c5c4)n3)nc2)CC1; test: as above
# THZ531 = compound: CN(C)C/C=C/C(=O)Nc1ccc(C(=O)N2CCC[C@@H](Nc3ncc(Cl)c(-c4c[nH]c5ccccc45)n3)C2)cc1 [THZ531]; test: as above
# YKL-5-124 = compound: C=CC(=O)Nc1ccc(C(=O)Nc2[nH]nc3c2CN(C(=O)N[C@H](CN(C)C)c2ccccc2)C3(C)C)cc1 [YKL-5-124]; test: as above
# Neratinib/HKI272 [5] = compound: T1, Neratinib/HKI272; test: as above
# LEE011/Ribociclib = compound: CN(C)C(=O)c1cc2cnc(Nc3ccc(N4CCNCC4)cn3)nc2n1C1CCCC1 [LEE011/Ribociclib]; test: as above
# Flavopiridol [6] = compound: T2, Flavopiridol; test: as above
# THZ1 = compound: CN(C)C/C=C/C(=O)Nc1ccc(C(=O)Nc2cccc(Nc3ncc(Cl)c(-c4c[nH]c5ccccc45)n3)c2)cc1 [THZ1]; test: as above
# [7] = compound: CC(=O)c1c(C)c2cnc(Nc3ccc(N4CCNCC4)cn3)nc2n(C2CCCC2)c1=O; test: as above
# BSJ-03-123 = compound: CC(=O)c1c(C)c2cnc(Nc3ccc(N4CCN(CCOCCOCCOCCNC(=O)COc5cccc6c5C(=O)N(C5CCC(=O)NC5=O)C6=O)CC4)cn3)nc2n(C2CCCC2)c1=O [BSJ-03-123]; test: as above
cell line,measurement,setting,value
UACC893,GR value,Neratinib/HKI272 [1]; 0.0003162 µM,1.06 GR
same,GR value,Neratinib/HKI272 [1]; 0.001 µM,0.922 GR
same,GR value,Neratinib/HKI272 [1]; 0.003162 µM,0.372 GR
same,GR value,Neratinib/HKI272 [1]; 0.01 µM,-0.192 GR
same,GR value,Neratinib/HKI272 [1]; 0.03162 µM,-0.409 GR
same,GR value,Neratinib/HKI272 [1]; 0.1 µM,-0.604 GR
same,GR value,Neratinib/HKI272 [1]; 0.3162 µM,-0.688 GR
same,GR value,Neratinib/HKI272 [1]; 1 µM,-0.784 GR
same,GR value,Neratinib/HKI272 [1]; 3.162 µM,-0.908 GR
same,GR value,Flavopiridol [2]; 0.0001 µM,1.02 GR
same,GR value,Flavopiridol [2]; 0.0003162 µM,0.977 GR
same,GR value,Flavopiridol [2]; 0.001 µM,0.945 GR
same,GR value,Flavopiridol [2]; 0.003162 µM,0.821 GR
same,GR value,Flavopiridol [2]; 0.01 µM,0.866 GR
same,GR value,Flavopiridol [2]; 0.03162 µM,0.822 GR
same,GR value,Flavopiridol [2]; 0.1 µM,0.609 GR
same,GR value,Flavopiridol [2]; 0.3162 µM,0.0303 GR
same,GR value,Flavopiridol [2]; 1 µM,-0.465 GR
same,increase in dead-cell fraction,[3]; 0.0001 µM,-0.0009
same,increase in dead-cell fraction,[3]; 0.0003162 µM,0.0014
same,increase in dead-cell fraction,[3]; 0.001 µM,-0.005
same,increase in dead-cell fraction,[3]; 0.003162 µM,-0.0023
same,increase in dead-cell fraction,[3]; 0.01 µM,0.0014
same,increase in dead-cell fraction,[3]; 0.03162 µM,0.0697
same,increase in dead-cell fraction,[3]; 0.1 µM,0.123
same,increase in dead-cell fraction,[3]; 0.3162 µM,0.166
same,increase in dead-cell fraction,[3]; 1 µM,0.169
same,increase in dead-cell fraction,[4]; 0.001 µM,-0.001
same,increase in dead-cell fraction,[4]; 0.003162 µM,0.0022
same,increase in dead-cell fraction,[4]; 0.01 µM,0.0063
same,increase in dead-cell fraction,[4]; 0.03162 µM,0.0037
same,increase in dead-cell fraction,[4]; 0.1 µM,0.0039
same,increase in dead-cell fraction,[4]; 0.3162 µM,0.0024
same,increase in dead-cell fraction,[4]; 1 µM,0.0009
same,increase in dead-cell fraction,[4]; 3.162 µM,-0.0005
same,increase in dead-cell fraction,[4]; 10 µM,0.0324
same,increase in dead-cell fraction,THZ531; 0.0001 µM,-0.0016
same,increase in dead-cell fraction,THZ531; 0.0003162 µM,0.0009
same,increase in dead-cell fraction,THZ531; 0.001 µM,0.0027
same,increase in dead-cell fraction,THZ531; 0.003162 µM,0.0008
same,increase in dead-cell fraction,THZ531; 0.01 µM,-0.0019
same,increase in dead-cell fraction,THZ531; 0.03162 µM,0.0067
same,increase in dead-cell fraction,THZ531; 0.1 µM,0.0859
same,increase in dead-cell fraction,THZ531; 0.3162 µM,0.0937
same,increase in dead-cell fraction,THZ531; 1 µM,0.109
same,increase in dead-cell fraction,YKL-5-124; 0.001 µM,-0.0033
same,increase in dead-cell fraction,YKL-5-124; 0.003162 µM,0.0007
same,increase in dead-cell fraction,YKL-5-124; 0.01 µM,0.002
same,increase in dead-cell fraction,YKL-5-124; 0.03162 µM,0.0043
same,increase in dead-cell fraction,YKL-5-124; 0.1 µM,0.007
same,increase in dead-cell fraction,YKL-5-124; 0.3162 µM,0.0024
same,increase in dead-cell fraction,YKL-5-124; 1 µM,-0.0001
same,increase in dead-cell fraction,YKL-5-124; 3.162 µM,0.0003
same,increase in dead-cell fraction,YKL-5-124; 10 µM,0.163
same,increase in dead-cell fraction,Neratinib/HKI272 [5]; 0.0003162 µM,-0.0043
same,increase in dead-cell fraction,Neratinib/HKI272 [5]; 0.001 µM,-0.0037
same,increase in dead-cell fraction,Neratinib/HKI272 [5]; 0.003162 µM,0.0271
same,increase in dead-cell fraction,Neratinib/HKI272 [5]; 0.01 µM,0.0964
same,increase in dead-cell fraction,Neratinib/HKI272 [5]; 0.03162 µM,0.113
same,increase in dead-cell fraction,Neratinib/HKI272 [5]; 0.1 µM,0.187
same,increase in dead-cell fraction,Neratinib/HKI272 [5]; 0.3162 µM,0.21
same,increase in dead-cell fraction,Neratinib/HKI272 [5]; 1 µM,0.299
same,increase in dead-cell fraction,Neratinib/HKI272 [5]; 3.162 µM,0.417
same,increase in dead-cell fraction,LEE011/Ribociclib; 0.001 µM,-0.0008
same,increase in dead-cell fraction,LEE011/Ribociclib; 0.003162 µM,-0.0005
same,increase in dead-cell fraction,LEE011/Ribociclib; 0.01 µM,0.0034
same,increase in dead-cell fraction,LEE011/Ribociclib; 0.03162 µM,0.0015
same,increase in dead-cell fraction,LEE011/Ribociclib; 0.1 µM,0.0055
same,increase in dead-cell fraction,LEE011/Ribociclib; 0.3162 µM,0.0017
same,increase in dead-cell fraction,LEE011/Ribociclib; 1 µM,0.0062
same,increase in dead-cell fraction,LEE011/Ribociclib; 3.162 µM,0.0013
same,increase in dead-cell fraction,LEE011/Ribociclib; 10 µM,0.0077
same,increase in dead-cell fraction,Flavopiridol [6]; 0.0001 µM,-0.0013
same,increase in dead-cell fraction,Flavopiridol [6]; 0.0003162 µM,-0.0009
same,increase in dead-cell fraction,Flavopiridol [6]; 0.001 µM,0.0052
same,increase in dead-cell fraction,Flavopiridol [6]; 0.003162 µM,-0.0042
same,increase in dead-cell fraction,Flavopiridol [6]; 0.01 µM,-0.0006
same,increase in dead-cell fraction,Flavopiridol [6]; 0.03162 µM,0.0011
same,increase in dead-cell fraction,Flavopiridol [6]; 0.1 µM,0.0012
same,increase in dead-cell fraction,Flavopiridol [6]; 0.3162 µM,0.013
same,increase in dead-cell fraction,Flavopiridol [6]; 1 µM,0.132
same,increase in dead-cell fraction,THZ1; 0.0001 µM,-0.0022
same,increase in dead-cell fraction,THZ1; 0.0003162 µM,-0.0022
same,increase in dead-cell fraction,THZ1; 0.001 µM,0.0023
same,increase in dead-cell fraction,THZ1; 0.003162 µM,-0.0026
same,increase in dead-cell fraction,THZ1; 0.01 µM,-0.0007
same,increase in dead-cell fraction,THZ1; 0.03162 µM,0.0317
same,increase in dead-cell fraction,THZ1; 0.1 µM,0.0774
same,increase in dead-cell fraction,THZ1; 0.3162 µM,0.0967
same,increase in dead-cell fraction,THZ1; 1 µM,0.134
same,increase in dead-cell fraction,[7]; 0.0003162 µM,-0.0005
same,increase in dead-cell fraction,[7]; 0.001 µM,0.0008
same,increase in dead-cell fraction,[7]; 0.003162 µM,-0.0028
same,increase in dead-cell fraction,[7]; 0.01 µM,0.0018
same,increase in dead-cell fraction,[7]; 0.03162 µM,0.006
same,increase in dead-cell fraction,[7]; 0.1 µM,0.0063
same,increase in dead-cell fraction,[7]; 0.3162 µM,0.0087
same,increase in dead-cell fraction,[7]; 1 µM,0.0064
same,increase in dead-cell fraction,[7]; 3.162 µM,0.0017
same,increase in dead-cell fraction,BSJ-03-123; 0.001 µM,-0.0061
same,increase in dead-cell fraction,BSJ-03-123; 0.003162 µM,0.0019
same,increase in dead-cell fraction,BSJ-03-123; 0.01 µM,0.0038
same,increase in dead-cell fraction,BSJ-03-123; 0.03162 µM,-0.0027
same,increase in dead-cell fraction,BSJ-03-123; 0.1 µM,0.0026
same,increase in dead-cell fraction,BSJ-03-123; 0.3162 µM,0.0022
same,increase in dead-cell fraction,BSJ-03-123; 1 µM,0.0012
same,increase in dead-cell fraction,BSJ-03-123; 3.162 µM,-0.0003
same,increase in dead-cell fraction,BSJ-03-123; 10 µM,0.0009
